The experiment concerns HCT116. As to conditions: 72 h. In short, it runs like this:
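Luminescence was read with CellTiter-Glo in HCT116 cells seeded at 250 per well in 1536-well plates. Signals were scaled between vehicle at 0% and positive control at -100%, then pattern-corrected. IC50 and maximal efficacy were obtained by fitting a four-parameter Hill equation.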

Structures can show the parent of a compound that is named as a salt.

As for `CC(=O)[C@@]1(O)CC[C@H]2[C@@H]3CCC4=CC(=O)CC[C@@H]4[C@H]3CC[C@@]21C` [Gestonorone], the IC50 cell viability was > 45.8 µM (ICRF193 0 nM) and > 45.8 µM (ICRF193 200 nM).

Consider `Oc1cc(O)c(Cl)cn1` [Gimeracil], for which the IC50 cell viability is, setting by setting: (ICRF193 0 nM) > 45.8 µM; (ICRF193 200 nM) > 45.8 µM.

On to `O=C(OCC(O)CO)c1ccccc1Nc1ccnc2cc(Cl)ccc12` (centres undefined) [Glafenine hydrochloride], for which the IC50 cell viability is > 45.8 µM (ICRF193 0 nM) and > 45.8 µM (ICRF193 200 nM).

Turning to `Cc1ccc(S(=O)(=O)NC(=O)NN2CC3CCCC3C2)cc1` (centres undefined) [Gliclazide], the IC50 cell viability is, setting by setting: (ICRF193 0 nM) > 45.8 µM; (ICRF193 200 nM) > 45.8 µM.

Take `CCC1=C(C)CN(C(=O)NCCc2ccc(S(=O)(=O)NC(=O)N[C@H]3CC[C@H](C)CC3)cc2)C1=O` [Glimepiride]: the IC50 cell viability (ICRF193 0 nM) was > 45.8 µM and the IC50 cell viability (ICRF193 200 nM) is > 45.8 µM.

Take `Cc1cnc(C(=O)NCCc2ccc(S(=O)(=O)NC(=O)NC3CCCCC3)cc2)cn1` [Glipizide]: the IC50 cell viability is > 45.8 µM (ICRF193 0 nM) and > 45.8 µM (ICRF193 200 nM).

Take `COc1ccc2c(c1)C(=O)N(CCc1ccc(S(=O)(=O)NC(=O)NC3CCCCC3)cc1)C(=O)C2(C)C` [Gliquidone]: the IC50 cell viability is > 45.8 µM (ICRF193 0 nM) and > 45.8 µM (ICRF193 200 nM).

Take `O=C1O[C@H](CO)[C@@H](O)[C@H](O)[C@H]1O` [Gluconolactone]: the IC50 cell viability by setting is: (ICRF193 0 nM) > 45.8 µM; (ICRF193 200 nM) > 45.8 µM.

For the compound `N[C@H]1C(O)O[C@H](CO)[C@@H](O)[C@@H]1O` (some centres undefined) [Glucosamine hydrochloride], the IC50 cell viability was > 45.8 µM (ICRF193 0 nM) and > 45.8 µM (ICRF193 200 nM).

Regarding `NC(=O)[C@H]1O[C@@H](O)[C@H](O)[C@@H](O)[C@@H]1O` [Glucuronamide], the IC50 cell viability was > 45.8 µM (ICRF193 0 nM) and > 45.8 µM (ICRF193 200 nM).

Consider `O=CCCCC=O` [Glutaraldehyde], for which the IC50 cell viability runs as follows: (ICRF193 0 nM) > 45.8 µM; (ICRF193 200 nM) > 45.8 µM.

As for `COc1ccc(Cl)cc1C(=O)NCCc1ccc(S(=O)(=O)NC(=O)NC2CCCCC2)cc1` [Glybenclamide], the IC50 cell viability reads like this: (ICRF193 0 nM) > 45.8 µM; (ICRF193 200 nM) > 45.8 µM.

Turning to `CC(C)(C)c1nnc(NS(=O)(=O)c2ccccc2)s1` [Glybuzole], the IC50 cell viability runs as follows: (ICRF193 0 nM) > 45.8 µM; (ICRF193 200 nM) > 45.8 µM.

In the case of `Nc1ccccc1C(=O)OCC(O)CO` (centres undefined) [Glyceryl 1-(2-aminobenzoate)], the IC50 cell viability is > 45.8 µM (ICRF193 0 nM) and > 45.8 µM (ICRF193 200 nM).

Regarding `O=C(NN1CCCC1)NS(=O)(=O)c1ccc(Cl)cc1` [Glyclopyramide], the IC50 cell viability reads like this: (ICRF193 0 nM) > 45.8 µM; (ICRF193 200 nM) > 45.8 µM.

Regarding `C[N+]1(C)CCC(OC(=O)C(O)(c2ccccc2)C2CCCC2)C1` (centres undefined) [Glycopyrrolate bromide], the IC50 cell viability runs as follows: (ICRF193 0 nM) > 45.8 µM; (ICRF193 200 nM) > 45.8 µM.

Take `COCCOc1cnc(NS(=O)(=O)c2ccccc2)nc1` [Glymidine sodium]: the IC50 cell viability was > 45.8 µM (ICRF193 0 nM) and > 45.8 µM (ICRF193 200 nM).

Consider `CC(C)C[C@H](NC(=O)[C@@H](COC(C)(C)C)NC(=O)[C@H](Cc1ccc(O)cc1)NC(=O)[C@H](CO)NC(=O)[C@H](Cc1c[nH]c2ccccc12)NC(=O)[C@H](Cc1cnc[nH]1)NC(=O)[C@@H]1CCC(=O)N1)C(=O)N[C@@H](CCCNC(=N)N)C(=O)N1CCC[C@H]1C(=O)NNC(N)=O` [Goserelin (acetate)], for which the IC50 cell viability reads like this: (ICRF193 0 nM) > 45.8 µM; (ICRF193 200 nM) > 45.8 µM.

Consider `CN1C2CCCC1CC(NC(=O)c1nn(C)c3ccccc13)C2` (centres undefined) [Granisetron (AB-1001)], for which the IC50 cell viability is, setting by setting: (ICRF193 0 nM) > 45.8 µM; (ICRF193 200 nM) > 45.8 µM.

As for `Cc1c(F)c(N2CCNC(C)C2)cc2c1c(=O)c(C(=O)O)cn2C1CC1` (centres undefined) [Grepafloxacin hydrochloride], the IC50 cell viability was > 45.8 µM (ICRF193 0 nM) and > 45.8 µM (ICRF193 200 nM).

On to `COc1ccccc1OC(=O)Oc1ccccc1OC` [Guaiacol carbonate], for which the IC50 cell viability is > 45.8 µM (ICRF193 0 nM) and > 45.8 µM (ICRF193 200 nM).

On to `COc1ccccc1O` [Guaiacol], for which the IC50 cell viability was > 45.8 µM (ICRF193 0 nM) and > 45.8 µM (ICRF193 200 nM).

`Cc1ccc(C(C)C)cc2c(C)ccc1-2` [Guaiazulene]: the IC50 cell viability runs as follows: (ICRF193 0 nM) > 45.8 µM; (ICRF193 200 nM) > 45.8 µM.

In the case of `COc1ccccc1OCC(O)CO` (centres undefined) [Guaifenesin], the IC50 cell viability reads like this: (ICRF193 0 nM) > 45.8 µM; (ICRF193 200 nM) > 45.8 µM.

For the compound `N=C(N)NCC1COC2(CCCCC2)O1` (centres undefined) [Guanadrel sulfate], the IC50 cell viability is, setting by setting: (ICRF193 0 nM) > 45.8 µM; (ICRF193 200 nM) > 45.8 µM.

As for `N=C(N)NCCN1CCCCCCC1` [Guanethidine sulfate], the IC50 cell viability (ICRF193 0 nM) is > 45.8 µM and the IC50 cell viability (ICRF193 200 nM) is > 45.8 µM.

For `N=C(N)NC(=O)Cc1c(Cl)cccc1Cl` [Guanfacine hydrochloride], the IC50 cell viability is > 45.8 µM (ICRF193 0 nM) and > 45.8 µM (ICRF193 200 nM).

Source of the values: the supplement of paper PMC12137928.
